Several values for one entry are separate records, joined by “and”; a condition that tells them apart may be missing. Equal values may be shown once.

Experiment [1] concerns Pig umami receptor (T1R1/T1R3). The experiment is described as follows: Screening assay for ligands: calcium influx via pig umami receptor in transfected CHO-K1 cells (Fluo-4 NW). It is filed as cell-based. The conditions noted are these: for stimulation of the pig umami receptor (signal, in words): CHO-K1 cell system, calcium signal; for Absorbance Mean: CHO-K1 cells with pig taste receptors and mouse G alpha 15; for Index Relative to control: ratio of calcium influx to control (no treatment = 1.00); for response index: example test run, background (no treatment) = response ratio 1.0, concentration not given.

In another experiment the test system is weaned piglets. Briefly: Double-choice preference test in drinking water, weaned piglets. The conditions noted are these: 0.5 M solution vs tap water; for % of preference Mean: two minutes, ad libitum conditions. It is filed as in vivo, pigs (Landrace×Large White). An excerpt: This example tests preferences in drinking water for amino acids L-Glutamine and L-Lysine in weaned piglets maintained in ad libitum conditions.
A total number of 58 pigs (Landrace×Large White) of 18±2 Kg BW, half males and half females, were used in this study. The test pigs were selected according to their level of stress and behaviour in front of social isolation, reaction to novelty and training to perform a choice between two containers that had the test solution (sugar at 0.5M) and control solution (tap water) after an habituation period of four days. During the habituation period, individual pigs were maintained in contiguous pens in front of two unfamiliar red plastic containers (double-choice test) during 10 minutes every day. On the fourth day, animals were trained for performing the test. […] Selected test animals were maintained in groups of four and three pen mates under ad libitum conditions, feed and water, with a balanced diet according to their requirements. During the experimental sessions, pigs were exposed simultaneously to two different solutions (approximately 250 g in each container) for a time period of two minutes. One of the solutions was tap water (control) and the other contained a 0.5M solution of one of the amino acids tested (test). Volume depletion of both test and control solutions were recorded and the % preference related to the test solution calculated as follows: […]

For the compound `NC(=O)CC[C@H](N)C(=O)O` [Glutamine, L-Glutamine], the “stimulation of the pig umami receptor (signal, in words)” value (“stimulation of the pig umami receptor” for short) in experiment [1] (listed as L-Glutamine) was “high degree of stimulation”; in experiment [1] (listed as glutamine), “the strongest and the most significant signal”. In addition, the “Absorbance Mean” value in experiment [1] (treatment 1 mM) is given as 10901; in experiment [1] (treatment 10 mM), 10038. For the same compound, the “Index Relative to control” value in experiment [1] (treatment 1 mM) is listed as 1.31^1; in experiment [1] (treatment 10 mM), 1.20^1. Besides, the “% of preference Mean” value with weaned piglets was 59.56% and 79.28%. The “preferences over tap water” value in the experiment on weaned piglets (1st study) worked out at 60%; with weaned piglets (2nd study) it was 79%.
Turning to `N[C@@H](CO)C(=O)O` [Serine], the “Absorbance Mean” value in experiment [1] (treatment 5 mM) was 8372; in experiment [1] (treatment 10 mM), 9697. Further, the “Index Relative to control” value is given as 1.00 in experiment [1] (treatment 5 mM) and 1.16 in experiment [1] (treatment 10 mM).
As for `C/C=C(/C)C(=O)O[C@H]1C(C)=C2[C@H]([C@@H]1OC(=O)CCCCCCC)[C@@](C)(OC(C)=O)C[C@H](OC(=O)CCC)[C@@]1(O)[C@H]2OC(=O)[C@@]1(C)O` [thapsigargin, reference compound], the response index in experiment [1] was found to be 17.89.
Regarding `NCCCC[C@H](N)C(=O)O` [L-Lysine], the “stimulation of the pig umami receptor” value in experiment [1] was “little or no capacity”. In the experiment on weaned piglets, the “preference (in words)” value is reported as “negative preference” and the “% of preference Mean” value is on record as 37.66%. For the same compound, the “preferences over tap water” value in the experiment on weaned piglets (study not given) is recorded as “about 38%”.
Take `O=P(O)(O)O[C@@H]1[C@@H](O)[C@H](O)[C@@H](O)[C@H](O)[C@@H]1O` [IMP, inositol monophosphate]: in experiment [1] (treatment 2.5 mM), the “Absorbance Mean” value is 9161 and the “Index Relative to control” value turned out to be 1.10.
Turning to `N[C@@H](CS)C(=O)O` [cysteine], the response index in experiment [1] is listed as 0.83.
With `CC(C)C[C@H](N)C(=O)O` [Leucine], the “stimulation of the pig umami receptor” value in experiment [1] is “the strongest and the most significant signal”. For the same compound, in experiment [1] (treatment 10 mM), the “Absorbance Mean” value was determined as 9163 and the “Index Relative to control” value was found to be 1.10. Further, in experiment [1] (treatment 30 mM), the “Absorbance Mean” value is reported as 10161 and the “Index Relative to control” value was 1.22^1.
Take `NC(CCP(=O)(O)O)C(=O)O` [L-AP4]: the results for the “Absorbance Mean” value in experiment [1] (treatment 5 mM) and in experiment [1] (treatment 10 mM) were 8907 and 9316, respectively. For the same compound, the entries for the “Index Relative to control” value in experiment [1] (treatment 5 mM) and in experiment [1] (treatment 10 mM) were 1.07 and 1.12, respectively.
For the compound `C[C@H](N)C(=O)O` [alanine], the response index in experiment [1] turned out to be 3.47.
Consider `NCC(=O)O` [Glycine], for which, in experiment [1] (treatment 1 mM), the “Absorbance Mean” value was found to be 8874 and the “Index Relative to control” value was 1.06. Moreover, in experiment [1] (treatment 5 mM), the “Absorbance Mean” value worked out at 9543 and the “Index Relative to control” value turned out to be 1.14.
As for `N[C@@H](CC(=O)O)C(=O)O` [Aspartate], in experiment [1] (treatment 1 mM), the “Absorbance Mean” value is 8619 and the “Index Relative to control” value worked out at 1.03. Further, in experiment [1] (treatment 10 mM), the “Absorbance Mean” value was 10352 and the “Index Relative to control” value is on record as 1.24^1.
For the compound `Cl.NCCCC[C@H](N)C(=O)O` [Lysine HCl], in experiment [1] (treatment 10 mM), the “Absorbance Mean” value is given as 9319 and the “Index Relative to control” value came out at 1.12. In experiment [1] (treatment 30 mM), the “Absorbance Mean” value came to 9675 and the “Index Relative to control” value is listed as 1.16.

For the origin of these results see patent US20110082220A1, “PORCINE UMAMI TASTE RECEPTORS AND USES THEREFOR” (The Regents of The University of California, priority 2007, published 2011).
